PubChem BioAssay AID2060619 (Molecular Pharmacology Branch, DTP, NCI, 2025)

System: 323965-272-R-J2-PDC complex spheroid viability
Experiment: Anticancer human tumor 323965-272-R-J2-PDC patient-derived pancreatic carcinoma cell line growth inhibition [CLK]
Conditions: for IC50: curve of first compound; for viability, T/C: stronger effect = lower value; active = viability on the fitted dose curve at most 10% of control; inactive = the rest
Procedure, shortened: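 Multi-cell-type spheroids combined patient-derived tumor cells with HUVEC endothelial cells and human mesenchymal stem cells. Paired agents were dosed in half-log steps down from about clinical Cmax, or from 10 microM where Cmax was unknown.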

[1] = second compound 0.0316 µM, first compound 0.0316 µM
[2] = second compound 0.0316 µM, first compound 0.1 µM
[3] = second compound 0.0316 µM, first compound 0.316 µM
[4] = second compound 0.0316 µM, first compound 1 µM
[5] = second compound 0.0316 µM, first compound 3.16 µM
[6] = second compound 0.0316 µM, first compound 10 µM
[7] = second compound 0.1 µM, first compound 0.0316 µM
[8] = second compound 0.1 µM, first compound 0.1 µM
[9] = second compound 0.1 µM, first compound 0.316 µM
[10] = second compound 0.1 µM, first compound 1 µM
[11] = second compound 0.1 µM, first compound 3.16 µM
[12] = second compound 0.1 µM, first compound 10 µM
[13] = second compound 0.316 µM, first compound 0.0316 µM
[14] = second compound 0.316 µM, first compound 0.1 µM
[15] = second compound 0.316 µM, first compound 0.316 µM
[16] = second compound 0.316 µM, first compound 1 µM
[17] = second compound 0.316 µM, first compound 3.16 µM
[18] = second compound 0.316 µM, first compound 10 µM
[19] = second compound 1 µM, first compound 0.0316 µM
[20] = second compound 1 µM, first compound 0.1 µM
[21] = second compound 1 µM, first compound 0.316 µM
[22] = second compound 1 µM, first compound 1 µM
[23] = second compound 1 µM, first compound 3.16 µM
[24] = second compound 1 µM, first compound 10 µM
[25] = second compound 3.16 µM, first compound 0.0316 µM
[26] = second compound 3.16 µM, first compound 0.1 µM
[27] = second compound 3.16 µM, first compound 0.316 µM
[28] = second compound 3.16 µM, first compound 1 µM
[29] = second compound 3.16 µM, first compound 3.16 µM
[30] = second compound 3.16 µM, first compound 10 µM
[31] = second compound 10 µM, first compound 0.0316 µM
[32] = second compound 10 µM, first compound 0.1 µM
[33] = second compound 10 µM, first compound 0.316 µM
[34] = second compound 10 µM, first compound 1 µM
[35] = second compound 10 µM, first compound 3.16 µM
[36] = second compound 10 µM, first compound 10 µM
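Also: spheroids exposed to agents for seven days before readout.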
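For viability, T/C in this document: percent of DMSO vehicle control wells so 100% = untreated growth.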

COc1cccc2c1C(=O)c1c(O)c3c(c(O)c1C2=O)CC(O)(C(=O)CO)CC3OC1CC(N)C(O)C(C)O1 (centres undefined) + CN1CCN(c2cc(C(=O)Nc3cc4cc(-c5cnn(C)c5)ccc4cn3)ccn2)CC1
active: viability, T/C [6] 1.54% | viability, T/C [12] 1.41% | viability, T/C [17] 5.8% | viability, T/C [18] 0.68% | viability, T/C [19] 2.27% | viability, T/C [20] 3.05% | viability, T/C [21] 2.16% | viability, T/C [22] 1.22% | viability, T/C [23] 1.2% | viability, T/C [24] 0.38% | viability, T/C [25] 4.1% | viability, T/C [26] 4.05% | viability, T/C [27] 2.98% | viability, T/C [28] 1.5% | viability, T/C [29] 1.35% | viability, T/C [30] 0.43% | viability, T/C [31] 4.15% | viability, T/C [32] 4.78% | viability, T/C [33] 4.17% | viability, T/C [34] 1.38% | viability, T/C [35] 1.47% | viability, T/C [36] 0.19%
< 31.6 nM: IC50 (second compound 0.1 µM) | IC50 (second compound 0.316 µM) | IC50 (second compound 1 µM) | IC50 (second compound 3.16 µM) | IC50 (second compound 10 µM)
117 nM: IC50 (second compound 0.0316 µM)
inactive: viability, T/C [1] 67.8% | viability, T/C [2] 40.7% | viability, T/C [3] 39.4% | viability, T/C [4] 34.8% | viability, T/C [5] 25.3% | viability, T/C [7] 54.4% | viability, T/C [8] 31.6% | viability, T/C [9] 29.3% | viability, T/C [10] 28.2% | viability, T/C [11] 19.1% | viability, T/C [13] 20.3% | viability, T/C [14] 19.8% | viability, T/C [15] 16.1% | viability, T/C [16] 13.1%

CCCS(=O)(=O)Nc1ccc(F)c(C(=O)c2c[nH]c3ncc(-c4ccc(Cl)cc4)cc23)c1F + CNC(=O)c1ccc(Nc2nc(OC3CCCC3)c3c(-c4ccc5nc(C)oc5c4)c[nH]c3n2)c(OC)c1
inactive: viability, T/C [1] 106% | viability, T/C [2] 113% | viability, T/C [3] 116% | viability, T/C [4] 127% | viability, T/C [5] 127% | viability, T/C [6] 106% | viability, T/C [7] 94.3% | viability, T/C [8] 88.2% | viability, T/C [9] 97.5% | viability, T/C [10] 98.3% | viability, T/C [11] 90% | viability, T/C [12] 79.9% | viability, T/C [13] 72.5% | viability, T/C [14] 74.8% | viability, T/C [15] 78% | viability, T/C [16] 78.8% | viability, T/C [17] 88.8% | viability, T/C [18] 72% | viability, T/C [19] 47.8% | viability, T/C [20] 59.6% | viability, T/C [21] 64.8% | viability, T/C [22] 71% | viability, T/C [23] 60.9% | viability, T/C [24] 60.2% | viability, T/C [25] 47.6% | viability, T/C [26] 54.7% | viability, T/C [27] 53.6% | viability, T/C [28] 49.2% | viability, T/C [29] 61.5% | viability, T/C [30] 59.2% | viability, T/C [31] 42.5% | viability, T/C [32] 50.6% | viability, T/C [33] 47.8% | viability, T/C [34] 58.8% | viability, T/C [35] 67.2% | viability, T/C [36] 61.4%
> 10000 nM: IC50 (second compound 0.0316 µM) | IC50 (second compound 0.1 µM) | IC50 (second compound 0.316 µM) | IC50 (second compound 1 µM)
< 31.6 nM: IC50 (second compound 3.16 µM) | IC50 (second compound 10 µM)
